Measurements as given in PMC3914206.

What was measured:
Assay type in all cases: binding
Settings in all cases: Compound Concentration 10 µM
[1] = biological target: T1, panel of 442 kinases (Homo sapiens, UniProt P35916)
T1 construct: purchased KINOMEscan
Excerpt: (§1) We assessed the selectivity of members of this scaffold using the KINOMEscan methodology across a near comprehensive panel of 442 kinases [[18,27]].

[2] = biological target: T2, panel of 442 kinases (Homo sapiens, UniProt Q9Y2K2)
T2 construct: purchased KINOMEscan
T2 sequence (Q9Y2K2 whole entry): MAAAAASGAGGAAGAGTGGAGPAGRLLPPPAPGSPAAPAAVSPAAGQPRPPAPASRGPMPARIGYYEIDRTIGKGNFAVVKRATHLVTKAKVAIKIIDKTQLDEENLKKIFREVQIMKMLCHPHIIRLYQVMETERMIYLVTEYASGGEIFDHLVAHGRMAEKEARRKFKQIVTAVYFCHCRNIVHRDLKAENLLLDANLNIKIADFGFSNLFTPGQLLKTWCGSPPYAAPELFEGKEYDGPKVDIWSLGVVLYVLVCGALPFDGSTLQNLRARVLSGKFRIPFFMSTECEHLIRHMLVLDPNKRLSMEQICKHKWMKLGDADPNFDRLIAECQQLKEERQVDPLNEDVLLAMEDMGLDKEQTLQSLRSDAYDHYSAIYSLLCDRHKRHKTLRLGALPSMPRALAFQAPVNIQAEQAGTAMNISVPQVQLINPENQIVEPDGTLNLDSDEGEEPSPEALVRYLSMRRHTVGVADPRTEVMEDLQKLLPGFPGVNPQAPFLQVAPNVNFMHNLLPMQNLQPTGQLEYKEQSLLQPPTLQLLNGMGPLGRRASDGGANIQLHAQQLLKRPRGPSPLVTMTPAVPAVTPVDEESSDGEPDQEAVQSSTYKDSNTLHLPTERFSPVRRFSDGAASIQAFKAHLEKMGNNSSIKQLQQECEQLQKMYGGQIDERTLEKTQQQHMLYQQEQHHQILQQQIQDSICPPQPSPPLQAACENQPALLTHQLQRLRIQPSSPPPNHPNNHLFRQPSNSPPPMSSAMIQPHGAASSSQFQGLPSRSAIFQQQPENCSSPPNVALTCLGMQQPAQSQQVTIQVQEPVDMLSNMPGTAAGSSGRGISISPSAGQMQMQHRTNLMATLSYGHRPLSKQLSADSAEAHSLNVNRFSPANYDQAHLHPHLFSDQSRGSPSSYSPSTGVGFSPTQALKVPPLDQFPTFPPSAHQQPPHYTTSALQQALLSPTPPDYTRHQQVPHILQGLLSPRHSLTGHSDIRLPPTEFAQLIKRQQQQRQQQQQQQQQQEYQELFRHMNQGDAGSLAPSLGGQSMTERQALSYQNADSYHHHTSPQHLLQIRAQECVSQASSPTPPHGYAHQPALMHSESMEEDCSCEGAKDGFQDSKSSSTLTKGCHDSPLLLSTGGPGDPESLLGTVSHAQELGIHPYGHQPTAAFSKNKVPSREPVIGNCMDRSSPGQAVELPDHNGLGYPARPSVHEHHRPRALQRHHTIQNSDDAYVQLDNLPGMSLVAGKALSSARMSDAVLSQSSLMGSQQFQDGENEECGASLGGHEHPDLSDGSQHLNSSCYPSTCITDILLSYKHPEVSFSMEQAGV
Excerpt: as §1

[3] = biological target: T3, panel of 442 kinases (Homo sapiens, UniProt Q9UEE5)
T3 construct: purchased KINOMEscan
T3 sequence (Q9UEE5 1-414): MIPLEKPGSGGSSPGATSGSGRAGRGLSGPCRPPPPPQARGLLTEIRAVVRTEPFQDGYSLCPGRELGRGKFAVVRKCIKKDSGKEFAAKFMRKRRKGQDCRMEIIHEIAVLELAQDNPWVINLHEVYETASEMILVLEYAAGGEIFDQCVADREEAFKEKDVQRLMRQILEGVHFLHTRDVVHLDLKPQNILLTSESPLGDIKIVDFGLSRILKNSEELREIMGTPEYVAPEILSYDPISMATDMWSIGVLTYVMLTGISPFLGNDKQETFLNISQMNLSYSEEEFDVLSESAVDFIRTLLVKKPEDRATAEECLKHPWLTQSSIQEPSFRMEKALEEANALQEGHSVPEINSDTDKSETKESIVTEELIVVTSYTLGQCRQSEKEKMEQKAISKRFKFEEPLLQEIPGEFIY
Excerpt: as §1

T1 sequence (P35916 25-1363): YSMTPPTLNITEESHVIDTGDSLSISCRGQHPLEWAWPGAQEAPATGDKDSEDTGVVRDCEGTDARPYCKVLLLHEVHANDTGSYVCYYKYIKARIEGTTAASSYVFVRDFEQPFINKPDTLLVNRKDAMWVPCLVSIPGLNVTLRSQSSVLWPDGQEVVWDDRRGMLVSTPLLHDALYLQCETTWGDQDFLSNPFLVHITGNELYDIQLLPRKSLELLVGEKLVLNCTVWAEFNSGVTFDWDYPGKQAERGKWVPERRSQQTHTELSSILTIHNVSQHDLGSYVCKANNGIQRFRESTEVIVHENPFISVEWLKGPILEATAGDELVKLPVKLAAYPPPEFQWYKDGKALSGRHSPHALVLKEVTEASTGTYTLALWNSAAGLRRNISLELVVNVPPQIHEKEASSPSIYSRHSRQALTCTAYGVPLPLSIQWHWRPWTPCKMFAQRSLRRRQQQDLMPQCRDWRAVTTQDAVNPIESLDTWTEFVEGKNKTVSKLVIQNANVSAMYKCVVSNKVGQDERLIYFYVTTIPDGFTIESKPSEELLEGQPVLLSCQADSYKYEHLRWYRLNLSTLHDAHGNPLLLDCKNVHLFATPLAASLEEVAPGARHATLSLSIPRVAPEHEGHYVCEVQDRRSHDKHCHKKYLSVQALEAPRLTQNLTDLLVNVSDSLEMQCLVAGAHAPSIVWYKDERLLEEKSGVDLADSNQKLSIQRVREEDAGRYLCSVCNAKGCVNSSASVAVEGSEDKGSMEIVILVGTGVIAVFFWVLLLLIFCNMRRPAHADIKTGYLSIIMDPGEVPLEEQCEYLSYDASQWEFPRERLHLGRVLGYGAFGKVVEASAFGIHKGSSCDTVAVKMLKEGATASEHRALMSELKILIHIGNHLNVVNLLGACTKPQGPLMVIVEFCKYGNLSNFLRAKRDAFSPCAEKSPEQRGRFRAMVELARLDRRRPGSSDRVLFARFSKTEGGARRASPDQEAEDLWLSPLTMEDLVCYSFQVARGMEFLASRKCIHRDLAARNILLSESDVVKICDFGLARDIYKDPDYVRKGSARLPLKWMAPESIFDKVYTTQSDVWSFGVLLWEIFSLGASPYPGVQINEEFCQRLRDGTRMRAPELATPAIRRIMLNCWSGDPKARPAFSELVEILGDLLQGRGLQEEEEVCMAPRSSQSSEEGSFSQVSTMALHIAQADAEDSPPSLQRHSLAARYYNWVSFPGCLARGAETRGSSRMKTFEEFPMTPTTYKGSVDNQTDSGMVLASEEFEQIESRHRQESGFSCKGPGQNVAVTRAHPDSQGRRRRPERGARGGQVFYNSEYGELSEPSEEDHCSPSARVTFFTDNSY

COc1cc(C(=O)N2CCC(N3CCN(C)CC3)CC2)ccc1Nc1ncc2c(n1)N(C)c1ccccc1C(=O)N2C [15 (LRRK2-IN-1)]
100: KINOMEscan: FLT4 [1] | KINOMEscan: QSK [2] | KINOMEscan: DRAK1 [3]

COc1cc(C(=O)N2CCC(N3CCN(C)CC3)CC2)ccc1Nc1ncc2c(n1)N(C1CCCC1)c1ccccc1C(=O)N2C [Compound 25, 11-cyclopentyl-2-((2-methoxy-4-(4-(4-methylpiperazin-1-yl)piperidine-1-carbonyl)phenyl)amino)-5-methyl-5H-benzo[e]pyrimido[5,4-b][1,4]diazepin-6(11H)-one]
100: KINOMEscan: FLT4 [1] | KINOMEscan: QSK [2] | KINOMEscan: DRAK1 [3]

CCOc1cc(C(=O)N2CCC(N3CCN(C)CC3)CC2)ccc1Nc1ncc2c(n1)N(C1CCCC1)c1ccccc1C(=O)N2C [Compound 26]
100: KINOMEscan: FLT4 [1] | KINOMEscan: QSK [2] | KINOMEscan: DRAK1 [3]
